Test results reported in PubChem BioAssay AID1963963 (Molecular Pharmacology Branch, DTP, NCI, 2024).

System: 958667-338-R-J2-PDC tumor spheroids viability
Experiment: Anticancer human tumor 958667-338-R-J2-PDC patient-derived colon adenocarcinoma cell line growth inhibition [PI3K]
Conditions: spheroids with HUVEC and MSC; for IC50: curve of first compound; for viability, T/C: stronger effect = lower value
Method in brief: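 Viability of mixed-cell spheroids was determined after exposure to pairwise combinations, one partner being inavolisib, alpelisib, duvelisib or copanlisib. Highest tested concentration matched clinical Cmax where known and 10 microM where not, descending in half-log steps.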

[1] = second compound 0.0316 µM, first compound 0.0316 µM
[2] = second compound 0.0316 µM, first compound 0.1 µM
[3] = second compound 0.0316 µM, first compound 0.316 µM
[4] = second compound 0.0316 µM, first compound 1 µM
[5] = second compound 0.0316 µM, first compound 3.16 µM
[6] = second compound 0.0316 µM, first compound 10 µM
[7] = second compound 0.1 µM, first compound 0.0316 µM
[8] = second compound 0.1 µM, first compound 0.1 µM
[9] = second compound 0.1 µM, first compound 0.316 µM
[10] = second compound 0.1 µM, first compound 1 µM
[11] = second compound 0.1 µM, first compound 3.16 µM
[12] = second compound 0.1 µM, first compound 10 µM
[13] = second compound 0.316 µM, first compound 0.0316 µM
[14] = second compound 0.316 µM, first compound 0.1 µM
[15] = second compound 0.316 µM, first compound 0.316 µM
[16] = second compound 0.316 µM, first compound 1 µM
[17] = second compound 0.316 µM, first compound 3.16 µM
[18] = second compound 0.316 µM, first compound 10 µM
[19] = second compound 1 µM, first compound 0.0316 µM
[20] = second compound 1 µM, first compound 0.1 µM
[21] = second compound 1 µM, first compound 0.316 µM
[22] = second compound 1 µM, first compound 1 µM
[23] = second compound 1 µM, first compound 3.16 µM
[24] = second compound 1 µM, first compound 10 µM
[25] = second compound 0.00316 µM, first compound 0.0316 µM
[26] = second compound 0.00316 µM, first compound 0.1 µM
[27] = second compound 0.00316 µM, first compound 0.316 µM
[28] = second compound 0.00316 µM, first compound 1 µM
[29] = second compound 0.00316 µM, first compound 3.16 µM
[30] = second compound 0.00316 µM, first compound 10 µM
[31] = second compound 0.01 µM, first compound 0.0316 µM
[32] = second compound 0.01 µM, first compound 0.1 µM
[33] = second compound 0.01 µM, first compound 0.316 µM
[34] = second compound 0.01 µM, first compound 1 µM
[35] = second compound 0.01 µM, first compound 3.16 µM
[36] = second compound 0.01 µM, first compound 10 µM
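Also: spheroids exposed to compounds for seven days before readout.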

With `CNC(=O)c1ccc(N2C(=S)N(c3ccc(C#N)c(C(F)(F)F)c3)C(=O)C2(C)C)cc1F` + CC(Nc1ncnc2nc[nH]c12)c1cc2cccc(Cl)c2c(=O)n1-c1ccccc1 the IC50 (second compound 0.0316 µM) was over 10 µM, the IC50 (second compound 0.1 µM) was over 10 µM and the IC50 (second compound 0.316 µM) was over 10 µM. It also gave an IC50 (second compound 1 µM) of over 10 µM, an IC50 (second compound 3.16 µM) of over 10 µM and an IC50 (second compound 10 µM) of over 10 µM. It also gave a viability, T/C [1] of 103%, a viability, T/C [2] of 94.7% and a viability, T/C [3] of 105%. For the same molecule, the viability, T/C [4] was 101%, the viability, T/C [5] was 113% and the viability, T/C [6] was 99.2%. For the same molecule, the viability, T/C [7] was 119%, the viability, T/C [8] was 98.7% and the viability, T/C [9] was 87.1%. For the same molecule, the viability, T/C [10] was 83.5%, the viability, T/C [11] was 114% and the viability, T/C [12] was 87%. The viability, T/C [13] was 103%, the viability, T/C [14] was 88.3% and the viability, T/C [15] was 101%. For the same molecule, the viability, T/C [16] was 107%, the viability, T/C [17] was 121% and the viability, T/C [18] was 107%. For the same molecule, the viability, T/C [19] was 96.7%, the viability, T/C [20] was 91.3% and the viability, T/C [21] was 102%. The viability, T/C [22] was 96.4%, the viability, T/C [23] was 104% and the viability, T/C [24] was 94%. It also gave a viability, T/C (second compound 3.16 µM, first compound 0.0316 µM) of 91.8%, a viability, T/C (second compound 3.16 µM, first compound 0.1 µM) of 86.3% and a viability, T/C (second compound 3.16 µM, first compound 0.316 µM) of 72.7%. It also gave a viability, T/C (second compound 3.16 µM, first compound 1 µM) of 101%, a viability, T/C (second compound 3.16 µM, first compound 3.16 µM) of 119% and a viability, T/C (second compound 3.16 µM, first compound 10 µM) of 84.2%. The viability, T/C (second compound 10 µM, first compound 0.0316 µM) was 103%, the viability, T/C (second compound 10 µM, first compound 0.1 µM) was 96.5% and the viability, T/C (second compound 10 µM, first compound 0.316 µM) was 101%. It also gave a viability, T/C (second compound 10 µM, first compound 1 µM) of 87.9%, a viability, T/C (second compound 10 µM, first compound 3.16 µM) of 115% and a viability, T/C (second compound 10 µM, first compound 10 µM) of 74.8%.

With `CC1(C)CCC(Nc2ncc(C(F)(F)F)c(-c3c[nH]c4c(P(C)(C)=O)c(C#N)ccc34)n2)CN1` (stereo unspecified) + COc1c(OCCCN2CCOCC2)ccc2c3n(c(=NC(=O)c4cnc(N)nc4)nc12)CCN3 the IC50 (second compound 0.00316 µM) was 3.33 µM, the IC50 (second compound 0.01 µM) was 1.98 µM and the IC50 (second compound 0.0316 µM) was 3.72 µM. For the same molecule, the IC50 (second compound 0.1 µM) was 1.4 µM, the IC50 (second compound 0.316 µM) was under 0.0316 µM and the IC50 (second compound 1 µM) was under 0.0316 µM. For the same molecule, the viability, T/C [25] was 90%, the viability, T/C [26] was 94.7% and the viability, T/C [27] was 71.1%. It also gave a viability, T/C [28] of 55.7%, a viability, T/C [29] of 66.4% and a viability, T/C [30] of 22.9%. The viability, T/C [31] was 105%, the viability, T/C [32] was 85.8% and the viability, T/C [33] was 68.2%. The viability, T/C [34] was 59.8%, the viability, T/C [35] was 58.7% and the viability, T/C [36] was 19.4%. The viability, T/C [1] was 72.5%, the viability, T/C [2] was 71.5% and the viability, T/C [3] was 65.9%. It also gave a viability, T/C [4] of 55%, a viability, T/C [5] of 60.4% and a viability, T/C [6] of 20.9%. It also gave a viability, T/C [7] of 69%, a viability, T/C [8] of 71.9% and a viability, T/C [9] of 48.2%. The viability, T/C [10] was 53.7%, the viability, T/C [11] was 44.8% and the viability, T/C [12] was 4.88%. For the same molecule, the viability, T/C [13] was 46.3%, the viability, T/C [14] was 42.9% and the viability, T/C [15] was 36.8%. The viability, T/C [16] was 39.5%, the viability, T/C [17] was 25.6% and the viability, T/C [18] was 1.02%. For the same molecule, the viability, T/C [19] was 19.9%, the viability, T/C [20] was 16.8% and the viability, T/C [21] was 14.9%. For the same molecule, the viability, T/C [22] was 15.8%, the viability, T/C [23] was 10.2% and the viability, T/C [24] was 1.04%.

In the case of `CC1(C)CCC(Nc2ncc(C(F)(F)F)c(-c3c[nH]c4c(P(C)(C)=O)c(C#N)ccc34)n2)CN1` (stereo unspecified) + CC(Nc1ccc2c(c1)OCCn1cc(N3C(=O)OCC3C(F)F)nc1-2)C(N)=O, the IC50 (second compound 0.00316 µM) is reported as 4.62 µM, the IC50 (second compound 0.01 µM) is reported as 2.8 µM and the IC50 (second compound 0.0316 µM) is reported as 2.55 µM. The IC50 (second compound 0.1 µM) was 4.67 µM, the IC50 (second compound 0.316 µM) was 1.68 µM and the IC50 (second compound 1 µM) was 1.64 µM. The viability, T/C [25] was 108%, the viability, T/C [26] was 85.9% and the viability, T/C [27] was 79.7%. The viability, T/C [28] was 75.2%, the viability, T/C [29] was 67.8% and the viability, T/C [30] was 29.5%. For the same molecule, the viability, T/C [31] was 135%, the viability, T/C [32] was 109% and the viability, T/C [33] was 76.9%. The viability, T/C [34] was 63.2%, the viability, T/C [35] was 67.6% and the viability, T/C [36] was 20.1%. For the same molecule, the viability, T/C [1] was 111%, the viability, T/C [2] was 108% and the viability, T/C [3] was 58.2%. The viability, T/C [4] was 60.7%, the viability, T/C [5] was 64.6% and the viability, T/C [6] was 25.7%. The viability, T/C [7] was 95.2%, the viability, T/C [8] was 78.6% and the viability, T/C [9] was 71.5%. The viability, T/C [10] was 75.8%, the viability, T/C [11] was 66.8% and the viability, T/C [12] was 24.3%. The viability, T/C [13] was 78.7%, the viability, T/C [14] was 78.7% and the viability, T/C [15] was 53.1%. It also gave a viability, T/C [16] of 54%, a viability, T/C [17] of 55.9% and a viability, T/C [18] of 26.2%. For the same molecule, the viability, T/C [19] was 86.9%, the viability, T/C [20] was 66.8% and the viability, T/C [21] was 67.2%. It also gave a viability, T/C [22] of 52.8%, a viability, T/C [23] of 50.8% and a viability, T/C [24] of 14.3%.
